The values below come from ChEMBL document CHEMBL5233238, “Research progress on sirtuins family members and cell senescence” (2020).

What all share (assay type): functional
For test [1], the system named is Caenorhabditis elegans. Briefly: Regulation of metabolic activity in […] assessed as increasing in average life span at 100 mol/L relative to control.
Test [2] concerns Caenorhabditis elegans. Briefly: Regulation of metabolic activity in […] assessed as increasing in average life span at 25 mol/L relative to control.
Test [3] deals with Caenorhabditis elegans. The experiment in a line: Regulation of metabolic activity in […] assessed as increasing in average life span at 50 mol/L relative to control.

Regarding `CN(C)C(=N)NC(=N)N` [METFORMIN], the Activity stood at 3% in the test on Caenorhabditis elegans [1], 18% in the test with Caenorhabditis elegans [2] and 36% with Caenorhabditis elegans [3].
